Here are results for one compound from doi:10.1101/2021.07.22.453354v1 (biorxiv, 2021).

The experiment addresses ΔNFun30 (printed ⊗NFun30), Fun30 from C. albicans, orf19.6291 (Candida albicans, UniProt A0A1D8PTJ0). Nature of the experiment: biochemical.

Structures are written as SMILES.

Consider `Nc1ncnc2c1ncn2[C@@H]1O[C@H](COP(=O)(O)OP(=O)(O)OP(=O)(O)O)[C@@H](O)[C@H]1O` [ATP], for which the equilibrium dissociation constant (Kd) – broadly, the constant that tells how readily two partners part at equilibrium – is 1320 ± 30 nM.
